# According to patent US20210244712A1, “METHODS FOR TREATING PATIENTS WITH CANCER HAVING DEFECTS IN CYCLIN D REGULATION” (NysnoBio Ireland DAC, priority 2018, published 2021):
# Entries after “also recorded” stand apart in the source; their conditions may differ.
# Key:
# ES-2 = assay: Cell proliferation assay; type: cell-based; conditions: Homo sapiens
# OAW28 = assay: Senescence quantification (SA-βGal); type: cell-based; conditions: OAW28, loss of Rb expression
# Description: Day 1: 96 well plate was seeded with 4000 cells/well and incubated for 24 hours at 37° C.
# Day 2: Compound 42 (50, 100, or 150 nM) or palbociclib (1 μM) as positive control were added to the wells and the plate was incubated for 96 hours at 37° C.
# Day 6: Senescence cells histochemical Staining Kit (Sigma) was used. The growth medium form the cells were aspirated then washed twice with fresh […]. […] 100 μL filtered Fixation Buffer was added per well and the plate was incubated for 6-7 minutes at room temperature. Then, the cells were rinsed 3 times with PBS. 50 μL of the Staining Mixture was added per well and incubated at 37° C. overnight without CO2 (staining is pH dependent). After staining, the Staining Mixture was removed, PBS and Hoechst dye (1 μg/mL) were added. Ten images were taken with Epifluorescence Microscope using the blue filter and 10 images were taken in the brightfield. The images were used to count the total cell number—the positive blue cells were counted in the bright field. The percentage of cells expressing β-galactosidase was calculated.
# Method 1: Mammalian β-Galactosidase Assay Kit (Thermo Scientific) was used. […] The cells were washed once with PBS. […] The absorbance was measured at 405 nm. […]
# Method 2: Assay of a portion of the lysate. […] 25 μL of lysate was removed and use it for Protein Quantification (BCA). […]
smiles,measurement,setting,value
"Cc1ccccc1C(=O)Nc1nc(NC(=O)c2ccccc2C)n(-c2ccc(OC(F)(F)F)cc2)n1 [Compound 42, N,N′-(1-(4-(trifluoromethoxy)phenyl)-1H-1,2,4-triazole-3,5-diyl)bis(2-methylbenzamide)]",IC50,"ES-2; Ovarian ES-2, overexpression of Cyclin D, loss of p16 (mutant p53)",0.057 µM
same,EC50,"ES-2; Table 7a, Ovarian (ES-2)",0.042 µM
same,cell senescence,OAW28,not observed; also recorded: no senescence; also recorded: += weak senescence due to loss of RB
